Results as given in publication PMC5790279, “Identification of novel leishmanicidal molecules by virtual and biochemical screenings targeting Leishmania eukaryotic translation initiation factor 4A” (PLoS Neglected Tropical Diseases, 2018).
Like-named read-outs stand apart in the source and are kept apart here.

Key:
LieIF = biological target: T1, LieIF (Leishmania infantum, UniProt A4HRK0); assay: Malachite green RNA-dependent ATPase assay of LieIF; assay type: biochemical; details: for effect on the ATPase activity of LieIF in screen: screened at 500 μM
T1 construct: His tag; made in house; host or cells: Escherichia coli Rosetta (Novagen)
T1 sequence (A4HRK0 1-403): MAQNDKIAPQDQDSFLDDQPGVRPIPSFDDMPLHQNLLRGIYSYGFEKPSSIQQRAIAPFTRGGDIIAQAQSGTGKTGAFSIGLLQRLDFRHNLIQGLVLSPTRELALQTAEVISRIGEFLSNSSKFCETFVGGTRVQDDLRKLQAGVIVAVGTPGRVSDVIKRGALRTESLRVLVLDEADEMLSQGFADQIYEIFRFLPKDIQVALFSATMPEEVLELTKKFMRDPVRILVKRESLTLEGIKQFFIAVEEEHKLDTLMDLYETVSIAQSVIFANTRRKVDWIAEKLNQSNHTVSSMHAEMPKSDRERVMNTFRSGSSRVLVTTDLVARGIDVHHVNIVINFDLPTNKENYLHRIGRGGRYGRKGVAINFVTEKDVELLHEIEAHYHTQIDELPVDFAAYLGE
Description: (§1) The Rosetta Escherichia coli strain (Novagen) was used for the expression of His-tagged recombinant LieIF and mouse eIF4AI (eIF4AIMus) proteins using already described constructs. Protein expression was performed as previously described, except that cultures were induced with 0.5 mM IPTG. Cells were collected by centrifugation and stored at -20°C until needed. Pellets were resuspended in 10 ml of buffer A (Tris-HCl, pH 7.5, 300 mM NaCl) supplemented with 10 mM imidazole and 0.02% NP40 (lysis buffer). Lysozyme (10 μg/ml, Sigma-Aldrich, St. Louis, MO, USA) and 1x of complete protease inhibitor EDTA-free cocktail (Roche, Indianapolis, USA) were added. The mixtures were kept on ice for 30 min. Then, cells were ruptured by sonication four times for 20 seconds with a Cell Disruptor W375 (Heat System-Ultrasonic, Plainview, N.Y., USA) using a microprobe at a setting of 5 and a duty cycle of 60%. The material was centrifuged for 30 min at 15,000 rpm in a JA-20 rotor (Beckman Coulter, Villepinte, France) at 4°C, and the supernatant was loaded onto a 1 ml nickel-nitrilotriacetic acid (Ni-NTA) agarose column (Ni-NTA, Qiagen, Hilden, Germany) equilibrated with the lysis buffer. The column was washed with 20 ml buffer A supplemented with 25 mM imidazole and 0.02% NP40 (wash buffer 1), and then with 20 ml buffer A supplemented with 25 mM imidazole (wash buffer 2). Proteins were eluted with buffer A supplemented with 100 mM imidazole (elution buffer). The purity of the proteins was checked on 12% SDS-PAGE gels that were stained with Coomassie blue. Purified proteins were stored at -80°C after making 50% in glycerol (w/w). The proteins concentrations were determined using the Bio-Rad Protein Dye Assay (Biorad, Munich, Germany).
(§2) We used a colorimetric assay based on Malachite green as previously described. We optimized the previously published conditions for the LieIF and eIF4AIMus ATPase assays to fit microtiter plates and the screening conditions by varying the quantities of proteins, ATP and magnesium acetate, and by testing different sources and concentrations of RNA. Each reaction was done in 50 μl. The final reaction buffers contained 50 mM potassium acetate, 20 mM MES, pH 6, either 5 mM or 1 mM magnesium acetate for LieIF or eIF4AIMus respectively, 2 mM dithiothreitol (DTT), 0.1 mg/ml bovine serum albumin (BSA) and 0.34 mg/ml whole yeast RNA (Type XI, Sigma). Reactions were incubated at 37°C for various times up to 45 min, and were stopped by adding 5 μl of 0.5 M ethylenediaminetetraacetic acid (EDTA) at pH 8. In experiments testing the compounds, samples dissolved in DMSO were added to the reaction in different concentrations. The final concentration of DMSO in the reaction was 10% (v/v). The reaction rates were determined by a linear regression fit of the initial, linear phase of the curves. Reaction rates were determined in three independent experiments for each compound concentration. Data were analyzed with Kaleidagraph (Synergy).
The Z’-factor is a statistical parameter used to measure the quality of a screening assay. For the biochemical screening, reactions were done with and without proteins as positive and negative controls, respectively. All assay conditions were identical to those described above. Positive controls were designed to replicate a positive hit in an inhibitor screen. Negative controls were designed as no enzymatic reactions. The phosphate released was measured after 45 min. Statistical analysis was performed using the equation: Z^′=1-3*(σ^++σ^-)/(μ^+-μ^-) (2) where μ^− and σ^− correspond to the mean absorbance and standard deviations respectively, for each reaction without enzyme (no activity), and μ^+ and σ^+ are the mean absorbance and standard deviations, respectively, for reaction wells in the presence of enzyme. The Z’-factor values above 0.5 were considered significant and corresponding plates were retained. […]

eIF4AIMus = biological target: T2, eIF4AIMus (Mus musculus, UniProt P60843); assay: Malachite green RNA-dependent ATPase assay of eIF4AIMus; assay type: biochemical; details: for effect on the ATPase activity of eIF4AIMus in screen: screened at 500 μM
T2 construct: His tag; made in house; host or cells: Escherichia coli Rosetta (Novagen)
Description: as §1, §2
Biochemical screening experiments were performed in 96-well plates. Column 1 and 12 contained full signal controls (no inhibitor) and background controls (no enzyme): wells A1 to D1 and E12 to H12 corresponded to negative controls; E1 to H1 and A12 to D12 corresponded to positive controls. Compounds were added in columns 2 to 11, at a 500 μM final concentration. ATPase test reactions were done in three independent experiments. The phosphate released was measured after 45 min. Results were reported as weighted means. Z’-scores were calculated for each plate from the full signal and background controls. Plates with Z’-values below 0.5 were discarded. The inhibition of ATPase activity was calculated as follow: [85] Percentageofinhibition=(μ^+-OD630nmforcompoundX)/(μ^+-μ^-)*100 (3) Selected hits were further tested with kinetic assays. Results were reported as ATPase reaction velocities. […]

[1] = test system: L. infantum promastigotes; assay: MTT viability assay on promastigotes; assay type: cell-based; details: Leishmania infantum, stationary phase promastigotes, 24h exposure
Description: The effect of the selected chemical compounds on the viability of L. infantum promastigotes was evaluated by a colorimetric MTT (3-(4,5-dimethylthiazol-2yl)-2,5-diphenyl tetrazolium bromide) assay that consisted in a reduction of tetrazolium salt to a soluble crystal (blue formazan) by the succinate dehydrogenase activity of mitochondria in living cells, which can be quantified by spectrophotometry as previously described. […] Briefly, 90 μl of promastigotes harvested from the stationary growth phase were added to a 96-well culture plate (5 × 10^5 cells/well) with 10 μl of various concentrations of the selected compounds (to obtain a final concentration of 1.5-100 μM) and incubated at 25°C for 24h. After incubation, 20 μl of MTT solution (5 mg/ml) were added to each well and incubated at 25°C for 4h. Then, 150 μl of DMSO was added to each well to dissolve the blue formazan and the optical density (OD) was measured at 560 nm with a microplate reader ([sequence], Labsystems). Mock treated-promastigotes in complete medium (with no drug, 1% DMSO) were used as positive control. Stock solutions of the compounds prepared for these experiments contained 100% DMSO. All subsequent dilutions were freshly made with RPMI 1640 (final concentration of 10% DMSO). Thus, all compounds, as well as the positive control, were tested at a final concentration of 1% DMSO per well.
The promastigotes viability was expressed as the percentage of the viable promastigotes in treated conditions relative to the 1% DMSO mock-treated promastigotes. The IC50 values were calculated for all the tested compounds by interpolation. […] All experiments were repeated three times in triplicate for each compound concentration. Absorbance measured was used to reflect promastigote or cell viability using the following formula: %cellviability=[(ODtest-ODblank)/(ODcontrol-ODblank)]*100 (4)

[2] = test system: L. infantum intramacrophage amastigotes; assay: Macrophage infection assay, intramacrophage amastigotes; assay type: cell-based, Leishmania infantum; details: infected THP-1-derived macrophages, 24h exposure
Description: [86] […] [87] […] [87]
After careful washing of PMA-treated THP-1 cells (50,000 cells/well) with warm serum-free RPMI-1640 (∼ 37°C) media, 50 μl of the diluted L. infantum promastigote culture were added at the optimized MOI (10:1). Control wells of THP-1 cells without the parasites, and THP-1 cells with the parasites, were set up in each 8-well Labtek slides. The slides were incubated at 37°C, 5% CO2 overnight. After incubation, infected wells were washed at least 3 times with serum-free RPMI-1640 media to ensure complete removal of non-engulfed promastigotes, and then they were incubated in presence of different concentrations of compounds for 24 h. Control groups were incubated in supplemented RPMI medium containing 1% DMSO. Cells were then fixed and stained with RAL 555 rapid stain kit (May-Grünwald Type) (Cell Path, Newtown, UK) following the manufacturer’s instructions. The number of infected cells per 100 macrophages and the total number of parasites per 100 cells observed were determined by light microscopy under immersion oil (1000X) by counting at least 100 cells per well. Three independent experiments were conducted for each compound concentration. These values allowed us to determine the mean values and standard deviations of the percentage of infected cells and the mean amastigote number per cell. To account for the overall parasite load, an Infection Index was calculated by multiplying these two values; then, to assess the infection inhibition by the compounds, the percentage of Inhibition Parasite Index (IPI) was determined as: IPI = 100 − ((Infection Index in treated cells/Infection Index in untreated cells) * 100).
The amastigote IC50 values were calculated for all tested compounds. Selectivity index was also determined for each compound as follows: SI = CC50/IC50. Data were analyzed with Kaleidagraph (Synergy). The statistical significance of differences was determined with the Student’s t-test (* p < 0.05; ** p < 0.01).

[3] = MTT cytotoxicity assay on THP-1-derived macrophages; details: human, THP-1-derived macrophages (PMA-differentiated)
Description: The human myelomonocytic cell line, THP-1 was ordered from the American Type Culture Collection (ATCC, TIB-202). [86] Cells were maintained in RPMI 1640/Glutamax-I media (Gibco BRL, Germany) supplemented with 10% heat-inactivated fetal calf serum (Gibco, Germany) plus penicillin G (100 U/ml) and streptomycin (100 g/ml). THP-1 cells were differentiated to macrophages after their treatment with 20 ng/ml phorbol 12-myristate 7-acetate (PMA) (Sigma, St. Louis, MO, USA) for 48 h at 37°C, 5% CO2. [87] […] [87]
For the cytotoxicity assay, we used the THP-1-derived macrophages (50,000 cells/well) seeded in 96-well plates and treated with serial concentrations of compounds (final concentrations of 1.5-100 μM) for 24h. After that, an MTT assay was performed as previously described to determine cell viability. [88] Thus, 20 μl of MTT solution (5 mg/ml) were added to each well and incubated at 25°C for 4h. Then, 150 μl of DMSO were added to each well to dissolve the blue formazan and the optical density (OD) was measured at 560 nm with a microplate reader ([sequence], Labsystems).
The cell viability of THP-1-derived macrophages was expressed as the percentage of the viable cell number in treated cells relative to the THP-1-derived macrophages treated with 1% DMSO. The 50% cytotoxic concentrations (CC50) were calculated for all the tested compounds by interpolation. All experiments were repeated three times in triplicate for each compound concentration.

[4] = test system: intracellular L. donovani amastigotes; design: method as in PMID 16949702; details: at 1.94 μM; cited from earlier work
[5] = 1 μM protein, 1 mM ATP, saturating RNA, read-out: IC50 of eIF4AIMus ATPase activity
[6] = Leishmania infantum, Macrophage, 24 h

T2 sequence (P60843 whole entry): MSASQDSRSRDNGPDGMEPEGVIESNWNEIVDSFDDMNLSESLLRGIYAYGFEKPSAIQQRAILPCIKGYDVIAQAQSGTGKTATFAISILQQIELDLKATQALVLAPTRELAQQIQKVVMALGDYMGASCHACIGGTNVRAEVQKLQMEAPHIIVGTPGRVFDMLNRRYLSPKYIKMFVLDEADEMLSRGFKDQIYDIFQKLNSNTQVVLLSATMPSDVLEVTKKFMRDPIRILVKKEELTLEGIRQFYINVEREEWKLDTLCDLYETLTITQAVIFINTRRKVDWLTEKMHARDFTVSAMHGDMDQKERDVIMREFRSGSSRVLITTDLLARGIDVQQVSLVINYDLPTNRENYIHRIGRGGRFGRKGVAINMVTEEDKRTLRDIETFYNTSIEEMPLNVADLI

| Compound | IC50 (LieIF) [mM] | effect on the ATPase activity of LieIF in screen (LieIF) | IC50 (eIF4AIMus; [5]) [mM] | effect on the ATPase activity of eIF4AIMus in screen (eIF4AIMus) | IC50 [1] [µM] | IC50 [2, 6] [µM] | IC50 [2] [µM] | CC50 at 24 h [3] [µM] | IC50 (LieIF; read-out: IC50 of LieIF ATPase activity, 1 μM protein, value printed in mM in text) [mM] | IC50 (eIF4AIMus) [mM] | IC50 (eIF4AIMus; read-out: IC50 of eIF4AIMus ATPase activity, 1 μM protein, value printed in mM in text) [mM] | reduction of the number of intracellular L. donovani amastigotes [4] [%] | inhibition at 500 µM (LieIF; 500 μM compound, phosphate released after 45 min, 96-well screen, read-out: percentage of inhibition of LieIF ATPase activity) [%] |
| --- | --- | --- | --- | --- | --- | --- | --- | --- | --- | --- | --- | --- | --- |
| CC(C)CCCC(C)C1CCC2C3CC(N)C4CC(O)CCC4(C)C3CCC12C (stereo not drawn) [Compound 20, 6-α-aminocholestanol] | 0.16 ± 0.025 | demonstrated inhibition | 0.185 ± 0.025 | demonstrated inhibition | 3.6 ± 0.1 | < 1 | 0.9 | 35.2 ± 1.3 |  |  |  |  |  |
| CC(C)CCCC(C)C1CCC2C3CC(=O)C4CC(O)CCC4(C)C3CCC12C (stereo not drawn) [Compound 48, 6-ketocholestanol] | > 1 | demonstrated inhibition |  | demonstrated inhibition | 39.1 ± 0.8 | 4.2 ± 0.1 |  | 81.4 ± 2.4 | ≤ 1 | > 1 | ≤ 1 |  |  |
| 7-α/β-aminocholesterol |  |  |  |  |  |  |  |  |  |  |  | 59 |  |
| CC(C)CCCC(C)C1CCC2C3CC(N)C4CC(O)CCC4(C)C3CCC12C (mixture of isomers) [Compound 208, 6-α/β-aminocholestanol] | 0.15 ± 0.015 |  | 0.115 ± 0.025 |  | 4.1 ± 2.6 | 1.4 ± 0.1 |  | 43.4 ± 0.1 |  |  |  |  | 90 |
